Data reported in patent US10520514B2, “Method for monitoring post-translational modification of protein” (KOREA INSTITUTE OF SCIENCE AND TECHNOLOGY, priority 2017, dated 2019).

Legend:
Format in all cases: biochemical
O-glycosylated tau = assay: Nanogap biosensor impedance of microbeads bound to tau protein, reacted with O-GlcNAc (CTD110.6) antibody
Procedure: (§1) A tosylate-treated magnetic bead (Thermo Fisher, Dynabead M-280, diameter 2.8 μm, 14203) and a tau protein binding antibody (abcam, Anti-Tau (Phosphor S262) antibody, ab64193, 50 μl/250 μl) are inserted in a 0.1 M PBS buffer and placed in a 37° C. incubator, and incubated on a roll mixer for 24 hours.
(§2) Next, the magnetic bead bound to the tau protein binding antibody are washed with 0.4% Block ACE (AbD serotec, USA) and blocked with 0.2 M tris buffer. 30 mg/mL of the microbead solution was stored in PBST (Phosphate Buffered Saline with Tween-20, 0.01% Tween-20) containing 0.4% Block Ace.
(§3) The tau protein at a concentration of 5250 ng/mL was diluted 1/10 in various concentrations (0.5 fg/mL to 50 pg/mL) using 0.1% PBST. Tau protein was treated with Thiamet G, an O-glycosylation drug, if necessary.
(§4) The microbead bound to the tau protein binding antibody were diluted to 300 μl/ml using 0.1% PBST, and the tau protein (diluent) and the microbead (diluent) were mixed at a concentration of 1:2 and reacted in a refrigerator for 22 hours.
(§5) Next, the microbead bound to the tau protein is washed twice with 0.1% PBST and washed twice with PBS (Phosphate Buffered Saline). Thereafter, it is diluted to a bead concentration of 60 μl/ml using PBS.
(§6) A microbead (300 μl/ml) bound to tau protein were prepared in the same manner as in Synthesis Example 1.
The microbead is mixed with 10.4 ng of an antibody capable of binding O-glycosylated proteins (Cell signaling, O-GlcNAc (CTD110.6) Mouse mAB, #9875) and reacted in a refrigerator for 22 hours.
The microbead bound to the O-glycosylated tau-binding antibody is washed twice with 0.1% PBST, washed twice with PBS, and diluted to a bead concentration of 60 μl/ml using PBS.
(§7) The samples thus obtained were measured for impedance using a biosensor array (10×10 or 20×20) with an electrode interval of 0.7 μm. […] In addition, impedance change rate is a value (%) obtained by dividing a difference between the impedance Zneg of Neg and the impedance BAT or BAT2 of divided by the impedance Zneg of Neg and multiplied by 100. Impedance change rate difference is defined as a value obtained by subtracting the impedance change rate of BAT from the impedance change rate of BAT2.

phosphorylated tau = assay: Nanogap biosensor impedance of microbeads bound to tau protein, reacted with AT8 antibody; details: 100 uM Thiamet G, tau protein 0.5 pg/ml
Procedure: as §1, §2, §3, §4, §5, §6
The microbead is mixed with 10 ng of an antibody capable of binding to phosphorylated tau protein (Thermo Fisher, Phospho-Tau (Ser202, Thr205) Antibody (AT8), MN1020) and reacted in a refrigerator for 22 hours.
The microbead bound to the phosphorylated tau-binding antibody is washed twice with 0.1% PBST, washed twice with PBS, and diluted to a bead concentration of 60 μl/ml using PBS.
The samples thus obtained were measured for impedance using a biosensor array (10×10 or 20×20) with an electrode interval of 0.7 μm. […] In addition, impedance change rate is a value (%) obtained by dividing a difference between the impedance Zneg of Neg and the impedance BAT or BAT2 of divided by the impedance Zneg of Neg and multiplied by 100. […]

tau protein = assay: Ratio of impedance change due to phosphorylated tau (P) and O-glycosylated tau (O); details: 100 uM Thiamet G; tau protein 0.5 pg/ml
Procedure: as §7

[1] = 10 uM Thiamet G, tau protein 0.5 pg/ml, O-GlcNAc
[2] = 30 uM Thiamet G, tau protein 0.5 pg/ml, O-GlcNAc
[3] = 100 uM Thiamet G, tau protein 0.5 pg/ml, O-GlcNAc

For `CCN=C1N[C@@H]2[C@@H](O)[C@H](O)[C@@H](CO)O[C@@H]2S1` [Thiamet G], the BAT-BAT2 (O-glycosylated tau; [1]) was 4.3 MΩ, the “Impedance change rate difference” value (O-glycosylated tau; [1]) was 1.62% and the BAT-BAT2 (O-glycosylated tau; [2]) was 11.6 MΩ. The “Impedance change rate difference” value (O-glycosylated tau; [2]) was 4.39%, the BAT-BAT2 (O-glycosylated tau; [3]) was 30.5 MΩ and the “Impedance change rate difference” value (O-glycosylated tau; [3]) was 11.54%. For the same compound, the “O ((BAT-BAT2)/Neg)” value (O-glycosylated tau; [3]) was 0.1154, the “Impedance change rate difference” value (O-glycosylated tau; 100 uM Thiamet G, tau protein 0.5 fg/ml) was 7.5% and the “Impedance change rate difference” value (O-glycosylated tau; 100 uM Thiamet G, tau protein 5.2 fg/ml) was 20.4%. The “Impedance change rate difference” value (O-glycosylated tau; 100 uM Thiamet G, tau protein 52.4 fg/ml) was 28.9%, the “Impedance change rate difference” value (O-glycosylated tau; 100 uM Thiamet G, tau protein 524 fg/ml) was 32.8% and the “Impedance change rate difference for the microbead combined with O-glycosylated antibody” value (O-glycosylated tau; when the concentration of Thiamet G was increased (Tables 1-1 and 1-2)) was “greatly increased”. For the same compound, the BAT-BAT2 (phosphorylated tau) was 0.59 MΩ, the “Impedance change rate difference” value (phosphorylated tau) was 1.28% and the “P ((BAT2-BAT)/Neg)” value (phosphorylated tau) was 0.0128. The P/O (tau protein) was 0.111.
